The results in this text go back to patent US20090018134A1, “Compounds - 945” (AstraZeneca AB, priority 2007, published 2009).

One assay deals with T1, mTOR (Homo sapiens, UniProt P42345).
T1 construct: FLAG; made in house
T1 sequence (P42345 1362-2549): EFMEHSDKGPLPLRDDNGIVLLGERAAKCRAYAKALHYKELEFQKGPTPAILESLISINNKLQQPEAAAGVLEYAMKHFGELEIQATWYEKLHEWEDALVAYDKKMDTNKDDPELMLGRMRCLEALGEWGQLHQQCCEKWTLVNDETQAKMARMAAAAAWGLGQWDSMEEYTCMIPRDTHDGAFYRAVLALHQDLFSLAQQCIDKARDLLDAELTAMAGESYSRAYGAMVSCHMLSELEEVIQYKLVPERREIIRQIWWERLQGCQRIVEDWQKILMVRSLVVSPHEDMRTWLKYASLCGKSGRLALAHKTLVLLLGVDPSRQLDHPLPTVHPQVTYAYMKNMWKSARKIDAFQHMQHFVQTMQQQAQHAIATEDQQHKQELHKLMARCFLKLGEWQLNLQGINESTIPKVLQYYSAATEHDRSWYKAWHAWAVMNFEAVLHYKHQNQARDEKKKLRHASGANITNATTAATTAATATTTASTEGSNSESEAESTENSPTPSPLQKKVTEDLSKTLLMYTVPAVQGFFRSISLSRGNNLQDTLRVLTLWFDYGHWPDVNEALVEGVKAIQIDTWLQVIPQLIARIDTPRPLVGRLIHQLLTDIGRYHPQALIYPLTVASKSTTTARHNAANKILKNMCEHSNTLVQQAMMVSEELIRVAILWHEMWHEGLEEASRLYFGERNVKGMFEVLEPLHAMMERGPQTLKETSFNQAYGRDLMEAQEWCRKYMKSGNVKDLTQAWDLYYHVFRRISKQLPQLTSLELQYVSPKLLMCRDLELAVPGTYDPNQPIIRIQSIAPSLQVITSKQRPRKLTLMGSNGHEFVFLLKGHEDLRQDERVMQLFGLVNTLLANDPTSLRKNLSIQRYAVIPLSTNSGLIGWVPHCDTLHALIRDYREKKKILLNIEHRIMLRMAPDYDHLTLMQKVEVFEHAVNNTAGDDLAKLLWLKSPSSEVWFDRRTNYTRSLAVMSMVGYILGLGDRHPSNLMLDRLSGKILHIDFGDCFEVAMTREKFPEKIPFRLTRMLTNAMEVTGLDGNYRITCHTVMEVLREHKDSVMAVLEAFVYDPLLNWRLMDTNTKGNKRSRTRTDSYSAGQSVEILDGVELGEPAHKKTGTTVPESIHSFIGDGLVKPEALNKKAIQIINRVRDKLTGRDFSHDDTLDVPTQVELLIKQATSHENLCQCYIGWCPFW
The assay can be described thus: In Vitro mTOR Kinase Assay (Echo), Test (a)(ii). The assay is classed as biochemical. The following applies: read-out: mTOR Kinase Assay (Echo). Summed up:
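Inhibition expressed as IC50 from an AlphaScreen read-out: phospho-T389 p70 S6K antibody plus streptavidin donor/protein A acceptor beads, left overnight in the dark. The kinase reaction ran 2 h at room temperature, then was stopped with EDTA. Enzyme: FLAG-purified mTOR 1362-2549 fragment from stable HEK293 cells.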
Turning to `CCS(=O)(=O)C1(c2cc(N3CCOC[C@@H]3C)nc(-c3ccc(NC(=O)NC4CC4)cc3)n2)CC1` [Example 11, 3-Cyclopropyl-1-[4-[4-(1-ethylsulfonylcyclopropyl)-6-[(3S)-3-methylmorpholin-4-yl]pyrimidin-2-yl]phenyl]urea], the IC50 amounted to 1.65 nM. On to `C[C@H]1COCCN1c1cc(C2(S(C)(=O)=O)CC2)nc(-c2ccc(NC(=O)NCc3ncc[nH]3)cc2)n1` [Example 2d, 3-(1H-imidazol-2-ylmethyl)-1-[4-[4-[(3S)-3-methylmorpholin-4-yl]-6-(1-methylsulfonylcyclopropyl)pyrimidin-2-yl]phenyl]urea], for which the IC50 was found to be 23.9 nM. Regarding `CCS(=O)(=O)C1(c2cc(N3CCOC[C@@H]3C)nc(-c3ccc(NC(=O)NC)cc3)n2)CC1` [Example 11a, 1-[4-[4-(1-ethylsulfonylcyclopropyl)-6-[(3S)-3-methylmorpholin-4-yl]pyrimidin-2-yl]phenyl]-3-methyl-urea], the IC50 turned out to be 4.18 nM. On the same count and under the same terms, with `CN(C)CCNC(=O)Nc1ccc(-c2nc(N3CCOCC3)cc(C3(S(C)(=O)=O)CC3)n2)cc1` [Example 12f, 3-(2-dimethylaminoethyl)-1-[4-[4-(1-methylsulfonylcyclopropyl)-6-morpholin-4-ylpyrimidin-2-yl]phenyl]urea] the figure was 60.5 nM.

On to `CC(C)S(=O)(=O)C1(c2cc(N3CCOC[C@@H]3C)nc(-c3ccc(NC(=O)NCCO)cc3)n2)CC1` [Example 7e, 3-(2-hydroxyethyl)-1-[4-[4-[(3S)-3-methylmorpholin-4-yl]-6-(1-propan-2-ylsulfonylcyclopropyl)pyrimidin-2-yl]phenyl]urea], for which the IC50 amounted to 2.12 nM. Still for that read-out and setting: for `CS(=O)(=O)C1(c2cc(N3CCOCC3)nc(-c3ccc(NC(=O)NC4CC4)cc3)n2)CC1` [Example 12, 3-Cyclopropyl-1-[4-[4-(1-methylsulfonylcyclopropyl)-6-morpholin-4-ylpyrimidin-2-yl]phenyl]urea] the value was 4.21 nM.

As for `C[C@H]1COCCN1c1cc(C2(S(C)(=O)=O)CCC2)nc(-c2ccc(NC(=O)NCc3ncc[nH]3)cc2)n1` [Example 5n, 3-(1H-imidazol-2-ylmethyl)-1-[4-[4-[(3S)-3-methylmorpholin-4-yl]-6-(1-methylsulfonylcyclobutyl)pyrimidin-2-yl]phenyl]urea], the IC50 stood at 8.28 nM.

Still in this assay, the particulars now being: table of enzyme assay Test (a)(ii); read-out: Test (a)(ii) IC50.
Regarding `C[C@H]1COCCN1c1cc(C2(S(=O)(=O)C3CC3)CCC2)nc(-c2ccc(NC(=O)NC3CC3)cc2)n1` [Example 36e, 3-cyclopropyl-1-[4-[4-(1-cyclopropylsulfonylcyclobutyl)-6-[(3S)-3-methylmorpholin-4-yl]pyrimidin-2-yl]phenyl]urea], the IC50 was 6.67 nM. `Cn1cc(NC(=O)Nc2ccc(-c3nc(N4CCOCC4)cc(C4(S(=O)(=O)c5ccc(F)cc5)CC4)n3)cc2)cn1` [Example 36aq, 3-[4-[4-[1-(4-fluorophenyl)sulfonylcyclopropyl]-6-morpholin-4-ylpyrimidin-2-yl]phenyl]-1-(1-methylpyrazol-4-yl)urea]: the IC50 worked out at 15.7 nM.

As to `CNC(=O)Nc1ccc(-c2nc(N3CCOC[C@@H]3C)cc(C3(S(=O)(=O)c4ccc(Cl)cc4)CCOCC3)n2)cc1` [Example 23j, 1-[4-[4-[4-(4-chlorophenyl)sulfonyloxan-4-yl]-6-[(3S)-3-methylmorpholin-4-yl]pyrimidin-2-yl]phenyl]-3-methylurea], the IC50 worked out at 31.4 nM.

In the case of `CC(C)NC(=O)Nc1ccc(-c2nc(N3CCOC[C@@H]3C)cc(C3(S(=O)(=O)CCCO)CC3)n2)cc1` [Example 31, 1-[4-[4-[1-(3-Hydroxypropylsulfonyl)cyclopropyl]-6-[(3S)-3-methylmorpholin-4-yl]pyrimidin-2-yl]phenyl]-3-propan-2-ylurea], the IC50 worked out at 4.52 nM. For `CCNC(=O)Nc1ccc(-c2nc(N3CCOC[C@@H]3C)cc(C3(S(=O)(=O)c4cc(F)ccc4C)CC3)n2)cc1` [Example 61e, 1-ethyl-3-[4-[4-[1-(5-fluoro-2-methylphenyl)sulfonylcyclopropyl]-6-[(3S)-3-methylmorpholin-4-yl]pyrimidin-2-yl]phenyl]urea], the IC50 was found to be 23.7 nM. Turning to `CC(C)CNC(=O)Nc1ccc(-c2nc(N3CCOC[C@@H]3C)cc(C3(S(=O)(=O)c4ccccn4)CC3)n2)cc1` [Example 28c, 1-[4-[4-[(3S)-3-methylmorpholin-4-yl]-6-(1-pyridin-2-ylsulfonylcyclopropyl)pyrimidin-2-yl]phenyl]-3-(2-methylpropyl)urea], the IC50 is 8.47 nM. As for `CCS(=O)(=O)C1(c2cc(N3CCOC[C@@H]3C)nc(-c3ccc(NC(=O)NC)cc3)n2)CC1` [Example 11a, 1-[4-[4-(1-ethylsulfonylcyclopropyl)-6-[(3S)-3-methylmorpholin-4-yl]pyrimidin-2-yl]phenyl]-3-methyl-urea], the IC50 came out at 5.9 nM. As to `CN(C)CCNC(=O)Nc1ccc(-c2nc(N3CCOCC3)cc(C3(S(C)(=O)=O)CC3)n2)cc1` [Example 12f, 3-(2-dimethylaminoethyl)-1-[4-[4-(1-methylsulfonylcyclopropyl)-6-morpholin-4-ylpyrimidin-2-yl]phenyl]urea], the IC50 stood at 350 nM. For the compound `C[C@H](CO)NC(=O)Nc1ccc(-c2nc(N3CCOC[C@@H]3C)cc(C3(S(=O)(=O)c4ccccc4)CC3)n2)cc1` [Example 36ed, 1-[4-[4-[1-(benzenesulfonyl)cyclopropyl]-6-[(3S)-3-methylmorpholin-4-yl]pyrimidin-2-yl]phenyl]-3-[(2R)-1-hydroxypropan-2-yl]urea], the IC50 came out at 7.04 nM. For the compound `Cc1csc(S(=O)(=O)C2(c3cc(N4CCOCC4)nc(-c4ccc(NC(=O)NCCC#N)cc4)n3)CC2)n1` [Example 42f, 3-(2-cyanoethyl)-1-[4-[4-[1-[(4-methyl-1,3-thiazol-2-yl)sulfonyl]cyclopropyl]-6-morpholin-4-ylpyrimidin-2-yl]phenyl]urea], the IC50 stood at 2.64 nM. With `C[C@H]1COCCN1c1cc(C2(S(=O)(=O)c3ccccc3)CCCC2)nc(-c2ccc(NC(=O)NC3CC3)cc2)n1` [Example 36bw, 1-[4-[4-[1-(benzenesulfonyl)cyclopentyl]-6-[(3S)-3-methylmorpholin-4-yl]pyrimidin-2-yl]phenyl]-3-cyclopropylurea], the IC50 came to 9.09 nM. With `CNC(=S)Nc1ccc(-c2nc(N3CCOC[C@@H]3C)cc(C3(S(=O)(=O)CCCO)CC3)n2)cc1` [Example 37g, 1-[4-[4-[1-(3-hydroxypropylsulfonyl)cyclopro-pyl]-6-[(3S)-3-methylmorpholin-4-yl]pyrimidin-2-yl]phenyl]-3-methylthiourea], the IC50 is 17.9 nM. For the compound `CNC(=O)Nc1ccc(-c2nc(N3CCOCC3)cc(C3(S(=O)(=O)c4nc(C)cs4)CC3)n2)cc1` [Example 42c, 3-methyl-1-[4-[4-[1-[(4-methyl-1,3-thiazol-2-yl)sulfonyl]cyclopropyl]-6-morpholin-4-ylpyrimidin-2-yl]phenyl]urea], the IC50 worked out at 3.6 nM.

For `C[C@H]1COCCN1c1cc(C2(S(C)(=O)=O)CCCC2)nc(-c2ccc(NC(=O)NC3CC3)nc2)n1` [Example 14n, 3-cyclopropyl-1-[5-[4-[(3S)-3-methylmorpholin-4-yl]-6-(1-methylsulfonylcyclopentyl)pyri-midin-2-yl]pyridin-2-yl]urea], the IC50 turned out to be 36.3 nM. As for `Cc1csc(S(=O)(=O)C2(c3cc(N4CCOC[C@@H]4C)nc(-c4ccc(NC(=O)N[C@H](C)CO)cc4)n3)CCC2)n1` [Example 98f, 3-[(2R)-1-hydroxypropan-2-yl]-1-[4-[4-[(3S)-3-methylmorpholin-4-yl]-6-[1-[(4-methyl-1,3-thiazol-2-yl)sulfonyl]cyclobutyl]pyrimidin-2-yl]phenyl]urea], the IC50 is 2.29 nM. Turning to `C[C@H]1COCCN1c1cc(C2(S(=O)(=O)c3ccc(C#N)cc3)CC2)nc(-c2ccc(NC(=O)NC3CC3)cc2)n1` [Example 77, 1-[4-[4-[1-(4-Cyanophenyl)sulfonylcyclopropyl]-6-[(3S)-3-methylmorpholin-4-yl]pyrimidin-2-yl]phenyl]-3-cyclopropylurea], the IC50 worked out at 8.21 nM. On the same count and under the same terms, for `Cc1ccc(S(=O)(=O)C2(c3cc(N4CCOC[C@@H]4C)nc(-c4ccc(NC(=O)NCCO)cc4)n3)CC2)cc1` [Example 95n, 3-(2-hydroxyethyl)-1-[4-[4-[(3S)-3-methylmorpholin-4-yl]-6-[1-(4-methylphenyl)sulfonylcyclopropyl]pyrimidin-2-yl]phenyl]urea] the value was 0.668 nM; for `C[C@H]1COCCN1c1cc(C2(S(=O)(=O)c3ccccn3)CCC2)nc(-c2ccc(NC(=O)NCCO)cc2)n1` [Example 36ah, 3-(2-hydroxyethyl)-1-[4-[4-[(3S)-3-methylmorpholin-4-yl]-6-(1-pyridin-2-ylsulfonylcyclobutyl)pyrimidin-2-yl]phenyl]urea], 2.47 nM; for `C[C@H]1COC[C@H](C)N1c1cc(C2(S(=O)(=O)c3ccccc3)CC2)nc(-c2ccc(NC(=O)NCCF)cc2)n1` [Example 93c, 1-[4-[4-[1-(benzenesulfonyl)cyclopropyl]-6-[(3S,5S)-3,5-dimethylmorpholin-4-yl]pyrimidin-2-yl]phenyl]-3-(2-fluoroethyl)urea], 2.9 nM. With `C[C@H]1COCCN1c1cc(C2(S(C)(=O)=O)CCC2)nc(-c2ccc(NC(=S)NCc3ncc[nH]3)cc2)n1` [Example 62a, 3-(1H-imidazol-2-ylmethyl)-1-[4-[4-[(3S)-3-methylmorpholin-4-yl]-6-(1-methylsulfonylcyclobutyl)pyrimi-din-2-yl]phenyl]thiourea], the IC50 was found to be 39.3 nM. The same measure, in the same setting: with `CNC(=O)Nc1ccc(-c2nc(N3CCOC[C@@H]3C)cc(C3(S(=O)(=O)c4ccc(NC)c(Cl)c4)CC3)n2)cc1` [Example 95h, 1-[4-[4-[1-(3-chloro-4-methylamino-phenyl)sulfonylcyclo-propyl]-6-[(3S)-3-methylmorpho-lin-4-yl]pyrimidin-2-yl]phenyl]-3-methylurea] the figure was 13 nM; with `C[C@H]1COCCN1c1cc(C2(S(=O)(=O)c3ccc(F)cc3)CC2)nc(-c2ccc(NC(=O)NCc3ncc[nH]3)cc2)n1` [Example 36aa, 1-[4-[4-[1-(4-fluorophenyl)sulfonylcyclopropyl]-6-[(3S)-3-methylmorpholin-4-yl]pyrimidin-2-yl]phenyl]-3-(1H-imidazol-2-ylmethyl)urea], 74.9 nM. Still for that read-out and setting: for `C[C@H]1COCCN1c1cc(C2(S(=O)(=O)c3ccccn3)CC2)nc(-c2ccc(NC(=O)NC3CCC3)cc2)n1` [Example 28a, 3-cyclobutyl-1-[4-[4-[(3S)-3-methylmorpholin-4-yl]-6-(1-pyridin-2-ylsulfonylcyclopropyl)pyrimidin-2-yl]phenyl]urea] the value was 2.53 nM.
